Measurements: patent US4798828A, “Heterocyclic-methylene-penems” (Beecham Group p.l.c., priority 1984, dated 1989)
Values after ≈ are worked out from the molar mass of the structure shown.

Tests used:
Assay in all cases: Antibacterial activity of compounds alone (MIC)
Assay type in all cases: cell-based
Conditions in all cases: compound alone, amoxycillin: typical MIC's from a number of tests, read-out: MIC (minimum inhibitory concentration)
[1] = system: E aerogenes N1
From the text: (§1) The following Table 1 summaries the antibacterial activity of selected compounds according to the invention (which are identified by compound numbers as given in the examples) against selected micro-organisms and, for comparison purposes, also gives the same data for amoxycillin. The data is given in the form of MIC values (minimum inhibitory concentration)in μg/ml.

[2] = system: E coli JT410
From the text: as §1

[3] = system: C freundii Mantio
From the text: as §1

[4] = system: P mirabilis C889
From the text: as §1

Row | SMILES | MIC [1] [µg/mL] | MIC [2] [µg/mL] | MIC [3] [µg/mL] | MIC [4] [µg/mL]
1 | Cn1ccc(/C=C2/C(=O)N3C(C(=O)O)=CSC23)n1 (racemic) [Compound 169, (5RS) Sodium (Z)-6-(1-methylpyrazol-3-ylmethylene)penem-3-carboxylate] | 512 | 512 | 256 | 256
2 | O=C(O)C1=CSC2/C(=C\c3ccns3)C(=O)N12 (racemic) [Compound 11, (5RS) Sodium (Z)-6-(5-Isothiazolylmethylene)penem-3-carboxylate] | > 100 | > 100 | > 100 | > 100
3 | O=C(O)C1=CSC2/C(=C\c3ccon3)C(=O)N12 (racemic) [Compound 43, (5RS) Sodium (Z)-6-(Isoxazol-3-ylmethylene)penem-3-carboxylate] | > 512 | > 512 | 256 | 256
4 | Cc1nc(/C=C2/C(=O)N3C(C(=O)O)=CSC23)co1 (racemic) [Compound 78, (5RS) Sodium (Z)-6-[(2-methyloxazol-4-yl)methylene]penem-3-carboxylate] | > 512 | > 512 | > 512 | 256
5 | Cn1cc(/C=C2/C(=O)N3C(C(=O)O)=CS[C@H]23)nn1 [Compound 158, (5R) Sodium (Z)-6-(1-methyl-1,2,3-triazol-4-ylmethylene) penem-3-carboxylate] | 256 | 32 | 64 | 64

Now from value to compound:

Row | MIC [1] [µg/mL] | MIC [2] [µg/mL] | MIC [3] [µg/mL] | MIC [4] [µg/mL] | SMILES
6 | 512 (≈ 1400 µM) | 256 (≈ 701 µM) | > 512 | > 512 | CC1(C)S[C@@H]2[C@H](NC(=O)[C@H](N)c3ccc(O)cc3)C(=O)N2[C@H]1C(=O)O [Amoxycillin, reference compound]
7 | 128 | 64 | 128 | 128 | Cn1cc(/C=C2/C(=O)N3C(C(=O)O)=CSC23)nn1 (racemic) [88(a), (5RS) Sodium (Z)-6-(1-methyl-1,2,3-triazol-4-yl-methylene)penem-3-carboxylate]
